The text below walks through data of PubChem BioAssay AID1259407 (Chemical Carcinogenesis Research Information System (CCRIS), 2018).

This data set has as its system CCRIS mutagenicity, Ames/micronucleus/aberration tests. Put plainly: CCRIS mutagenicity studies.
Setting [1] is: Test System: AMES SALMONELLA TYPHIMURIUM, Strain/Indicator: TA98, Metabolic Activation: NONE, Method: STANDARD PLATE.
Setting [2] is: Test System: AMES SALMONELLA TYPHIMURIUM, Strain/Indicator: TA98, Metabolic Activation: RAT, LIVER, S-9, AROCLOR 1254, Method: STANDARD PLATE.
Where [3] appears, read: Test System: AMES SALMONELLA TYPHIMURIUM, Strain/Indicator: TA100, Metabolic Activation: NONE, Method: STANDARD PLATE.
[4] abbreviates: Test System: AMES SALMONELLA TYPHIMURIUM, Strain/Indicator: TA100, Metabolic Activation: RAT, LIVER, S-9, AROCLOR 1254, Method: STANDARD PLATE.
The mark [5] stands for this setting: Test System: AMES SALMONELLA TYPHIMURIUM, Strain/Indicator: TA102, Metabolic Activation: RAT, LIVER, S-9, AROCLOR 1254, Method: STANDARD PLATE.

Structures are written as SMILES. Activity calls are given as the source filed them. No rule for the calls is given here.

For the compound `Clc1cc2c(cc1Cl)Oc1cc(Cl)c(Cl)cc1O2`, the mutagenic call reads like this: (End Point: IN VITRO CHROMOSOMAL ABERRATIONS, Test System: CHINESE HAMSTER OVARY CELLS, Metabolic Activation: NONE) “inactive; negative”; (End Point: IN VITRO CHROMOSOMAL ABERRATIONS, Test System: CHINESE HAMSTER OVARY CELLS, Metabolic Activation: RAT, LIVER, S-9, AROCLOR 1254) “inactive; negative”; (Test System: AMES SALMONELLA TYPHIMURIUM, Strain/Indicator: TA97, Metabolic Activation: NONE, Method: PREINCUBATION) “inactive; negative”; (Test System: AMES SALMONELLA TYPHIMURIUM, Strain/Indicator: TA97, Metabolic Activation: RAT, LIVER, S-9, AROCLOR 1254, Method: PREINCUBATION) “inactive; negative”; (Test System: AMES SALMONELLA TYPHIMURIUM, Strain/Indicator: TA98, Metabolic Activation: NONE, Method: PREINCUBATION) “inactive; negative”; (Test System: AMES SALMONELLA TYPHIMURIUM, Strain/Indicator: TA98, Metabolic Activation: RAT, LIVER, S-9, AROCLOR 1254, Method: PREINCUBATION) “inactive; negative”. Also, the mutagenic call was “inactive; negative” (Test System: AMES SALMONELLA TYPHIMURIUM, Strain/Indicator: TA100, Metabolic Activation: NONE, Method: PREINCUBATION); “inactive; negative” (Test System: AMES SALMONELLA TYPHIMURIUM, Strain/Indicator: TA100, Metabolic Activation: RAT, LIVER, S-9, AROCLOR 1254, Method: PREINCUBATION); “inactive; negative” (Test System: Ames Salmonella typhimurium, Strain/Indicator: TA98, Metabolic Activation: Hamster, Liver, S-9, Aroclor 1254, Method: Preincubation); “inactive; negative” (Test System: Ames Salmonella typhimurium, Strain/Indicator: TA98, Metabolic Activation: None, Method: Preincubation); “inactive; negative” (Test System: Ames Salmonella typhimurium, Strain/Indicator: TA98, Metabolic Activation: Rat, Liver, S-9, Aroclor 1254, Method: Preincubation); “inactive; negative” (Test System: Ames Salmonella typhimurium, Strain/Indicator: TA100, Metabolic Activation: Hamster, Liver, S-9, Aroclor 1254, Method: Preincubation). Also, the mutagenic call (Test System: Ames Salmonella typhimurium, Strain/Indicator: TA100, Metabolic Activation: None, Method: Preincubation) is “inactive; negative”; the mutagenic call (Test System: Ames Salmonella typhimurium, Strain/Indicator: TA100, Metabolic Activation: Rat, Liver, S-9, Aroclor 1254, Method: Preincubation) is “inactive; negative”; the mutagenic call (Test System: Ames Salmonella typhimurium, Strain/Indicator: TA1535, Metabolic Activation: Hamster, Liver, S-9, Aroclor 1254, Method: Preincubation) was “inactive; negative”; the mutagenic call (Test System: Ames Salmonella typhimurium, Strain/Indicator: TA1535, Metabolic Activation: None, Method: Preincubation) was “inactive; negative”; the mutagenic call (Test System: Ames Salmonella typhimurium, Strain/Indicator: TA1535, Metabolic Activation: Rat, Liver, S-9, Aroclor 1254, Method: Preincubation) is “inactive; negative”; the mutagenic call (Test System: Ames Salmonella typhimurium, Strain/Indicator: TA1537, Metabolic Activation: Hamster, Liver, S-9, Aroclor 1254, Method: Preincubation) is “inactive; negative”. In addition, the mutagenic call (Test System: Ames Salmonella typhimurium, Strain/Indicator: TA1537, Metabolic Activation: None, Method: Preincubation) is “inactive; negative”; the mutagenic call (Test System: Ames Salmonella typhimurium, Strain/Indicator: TA1537, Metabolic Activation: Rat, Liver, S-9, Aroclor 1254, Method: Preincubation) was “inactive; negative”; the mutagenic call (Test System: MOUSE LYMPHOMA, Strain/Indicator: L5178Y (TK+/TK-), Metabolic Activation: NONE, Method: SUSPENSION/PLATE) is “inactive; negative”; the mutagenic call (Test System: MOUSE LYMPHOMA, Strain/Indicator: L5178Y (TK+/TK-), Metabolic Activation: RAT, LIVER, S-9, AROCLOR 1254, Method: SUSPENSION/PLATE) is “inactive; negative”.

For the compound `CC=C(C)C(=O)O[C@H]1[C@H](OC(C)=O)[C@]2(CO)[C@H](O)C[C@]3(C)C(=CC[C@@H]4[C@@]5(C)CC[C@@H](O[C@@H]6O[C@H](C(=O)O)[C@@H](O[C@@H]7O[C@H](CO)[C@@H](O)[C@H](O)[C@H]7O)[C@H](O)[C@H]6O[C@@H]6O[C@H](CO)[C@@H](O)[C@H](O)[C@H]6O)[C@](C)(CO)[C@@H]5CC[C@]43C)[C@@H]2CC1(C)C`, the mutagenic call was “inactive; negative” (Test System: AMES SALMONELLA TYPHIMURIUM, Strain/Indicator: TA97, Metabolic Activation: NONE, Method: STANDARD PLATE); “inactive; negative” (Test System: AMES SALMONELLA TYPHIMURIUM, Strain/Indicator: TA97, Metabolic Activation: RAT, LIVER, S-9, AROCLOR 1254, Method: STANDARD PLATE); “inactive; negative” under setting [1]; “inactive; negative” under setting [2]; “inactive; negative” under setting [3]; “inactive; negative” under setting [4]. Further, the mutagenic call is “inactive; negative” (Test System: AMES SALMONELLA TYPHIMURIUM, Strain/Indicator: TA102, Metabolic Activation: NONE, Method: STANDARD PLATE) and “inactive; negative” under setting [5].

As to `CCCCNC(=O)OCC#CI`, the mutagenic call was “inactive; negative” (End Point: Ames Salmonella typhimurium, Test System: TA98, Metabolic Activation: S-9, Method: Not specified); “inactive; negative” (End Point: Ames Salmonella typhimurium, Test System: TA100, Metabolic Activation: S-9, Method: Not specified); “inactive; negative” (End Point: Ames Salmonella typhimurium, Test System: TA1535, Metabolic Activation: S-9, Method: Not specified); “inactive; negative” (End Point: Ames Salmonella typhimurium, Test System: TA1537, Metabolic Activation: S-9, Method: Not specified); “inactive; negative” (End Point: Ames Salmonella typhimurium, Test System: TA1538, Metabolic Activation: S-9, Method: Not specified); “inactive; negative” (End Point: In vivo micronucleus, Test System: Bone marrow polychromatic erythrocytes, Species: Mouse, Strain/Sex: CD-1/Males and females, Route: Oral). The mutagenic call is, setting by setting: (Test System: Ames Salmonella typhimurium, Strain/Indicator: TA98, Metabolic Activation: None, Method: Not specified) “inactive; negative”; (Test System: Ames Salmonella typhimurium, Strain/Indicator: TA100, Metabolic Activation: None, Method: Not specified) “inactive; negative”; (Test System: Ames Salmonella typhimurium, Strain/Indicator: TA1535, Metabolic Activation: None, Method: Not specified) “inactive; negative”; (Test System: Ames Salmonella typhimurium, Strain/Indicator: TA1537, Metabolic Activation: None, Method: Not specified) “inactive; negative”; (Test System: Ames Salmonella typhimurium, Strain/Indicator: TA1538, Metabolic Activation: None, Method: Not specified) “inactive; negative”.

Consider `COc1cc(O)c2c(c1)C(=O)c1cc(C)cc(O)c1C2=O`, for which the mutagenic call under setting [1] is “inactive; negative”; the mutagenic call under setting [2] is “inactive; negative”; the mutagenic call under setting [3] was “inactive; negative”; the mutagenic call under setting [4] was “inactive; negative”; the mutagenic call under setting [5] was “inactive; negative”; the mutagenic call (Test System: AMES SALMONELLA TYPHIMURIUM, Strain/Indicator: TA1537, Metabolic Activation: NONE, Method: STANDARD PLATE) is “inactive; negative”. Moreover, the mutagenic call (Test System: AMES SALMONELLA TYPHIMURIUM, Strain/Indicator: TA1537, Metabolic Activation: RAT, LIVER, S-9, AROCLOR 1254, Method: STANDARD PLATE) is “active; positive” and the mutagenic call (Test System: AMES SALMONELLA TYPHIMURIUM, Strain/Indicator: TA1537, Metabolic Activation: S-9, Method: STANDARD PLATE) is “active; positive”.
